The values that follow come from publication PMC4321955 (Free radical biology & medicine, 2013).

Series [1] addresses ubiquinone-binding site of complex I (site IQ) (Rattus norvegicus, UniProt A6K8N6+P03889+Q641Y2). In words: site IQ superoxide/H2O2 production assay. Format: biochemical. The conditions noted are these: at the compound's estimated IC50 (80 µM for compound 15); 5 mM succinate.
In series [2] the test system is site IF/DH (site IF plus matrix NAD-linked dehydrogenases). In words: site IF/DH superoxide/H2O2 production assay. Format: biochemical, rat.
For series [3], the system named is flavin site of complex II (site IIF). In words: site IIF superoxide/H2O2 production assay. Format: biochemical, rat.
For series [4], the system named is outer ubiquinone-binding site of complex III (site IIIQo). In words: site IIIQo superoxide/H2O2 production assay. It counts as biochemical, rat.
For series [5], the system named is mitochondrial sn-glycerol 3-phosphate dehydrogenase (mGPDH). In words: mGPDH superoxide/H2O2 production assay. Format: biochemical, rat.
The test system of series [6] is mitochondrial membrane potential (ΔΨm). In words: ΔΨm assay with potentiometric dye TMRM. The conditions noted are these: for lowest concentration that significantly decreased ΔΨm: 5 mM glutamate plus 5 mM malate. It counts as biochemical, rat.
The next series concerns complex I. In words: rate of reverse electron transport from succinate to NAD. It counts as biochemical, rat.
A further series has as its system site IQ. It counts as biochemical, rat. The conditions noted are these: […] CN-POBS.
The next series has as its system site IF. In words: steady-state H2O2 production specifically from site IF. Format: biochemical, rat. The conditions noted are these: […] CN-POBS; 5 mM malate, […] ATP, 1.5 mM aspartate, 4 µM rotenone, 1 µg/mL oligomycin.
For series [7] the following is noted: ref NCBI PubChem compound database; cited from earlier work.
The mark [8] stands for this setting: at the compound's estimated site IQ IC50 (80 µM for compound 15).
The mark [9] stands for this setting: dose-response 0.08-80 µM, none observed below this.

A word on the LogP: it is the decadic logarithm of the partition coefficient of the neutral form, usually between octanol and water. Take `O=[N+]([O-])c1ccc(Oc2ccc(S(=O)(=O)NC3CCCCC3)cc2)cc1` [CN-POBS, N-cyclohexyl-4-(4-nitrophenoxy)benzenesulfonamide]: the “IQ: normalized percent change from DMSO in H2O2 production” value in series [1] was −56%. In addition, in [2] (setting [8]), the “IF/DH: normalized percent change from DMSO in H2O2 production” value is 7%. In series [2] (setting [9]), the “concentration with significant effects on H2O2 production from site IF/DH” value was no less than 25 µM. In addition, the “IIF: normalized percent change from DMSO in H2O2 production” value in [3] (setting [8]) is given as 4%. Further, the “concentration with significant effects on H2O2 production from site IIF” value in [3] (setting [9]) was no less than 25 µM. In addition, the “IIIQo: normalized percent change from DMSO in H2O2 production” value in [4] (setting [8]) is on record as 0%. The “concentration with significant effects on H2O2 production from site IIIQo” value in series [4] (setting [9]) is no less than 25 µM. For the same compound, the “mGPDH: normalized percent change from DMSO in H2O2 production” value in [5] (setting [8]) was −2%. Moreover, the “concentration with significant effects on H2O2 production from mGPDH” value in [5] (setting [9]) was no less than 25 µM. The “lowest concentration that significantly decreased ΔΨm” value in [6] (absence of nigericin, TMRM) is listed as 8 µM; in [6] (presence of nigericin, TMRM) it was 25 µM. The “concentration that significantly decreased ΔΨm” value in series [6] (5 mM succinate and 4 µM rotenone, TMRM) is on record as 80 µM. Also, the “ΔΨm: normalized percent change from DMSO” value in [6] (setting [8]) is −1%. Also, in the series with complex I (5 mM succinate plus 0.5 mM glutamate, no significant effect below this), the “concentration with significant effect on reverse electron flux through complex I (rate of NAD(P)+ reduction)” value was no less than 25 µM. For the same compound, in the series with complex I (at the compound's estimated site IQ IC50, succinate via complex I), the “Rate of NAD(P)+ Reduction: normalized percent change from DMSO” value was −1%. Besides, the “decrease in total rate of H2O2 production” value in the series with site IQ (5 mM succinate alone) is on record as 50%. Besides, in the series on site IQ (5 mM succinate with 4 µM rotenone), the “effect on H2O2 production by succinate in the presence of rotenone (from site IF/DH)” value is “no significant effect”. In the series with site IF, the “effect on H2O2 production specifically from site IF” value is recorded as “no effect”. Moreover, the log partition coefficient (LogP) in series [7] is listed as 4.1.
